Converted amounts (≈) assume the structure as drawn. The source made the active and inactive calls. No cut-off for these calls is given here.
What was measured:
Escherichia coli [1] = experiment: Antibacterial activity against Escherichia coli ATCC 25922 measured after 18 to 20 hrs by broth microdilution method; type: functional; settings: time 18-20 hrs
Pseudomonas aeruginosa [2] = experiment: Antibacterial activity against Pseudomonas aeruginosa FB measured after 18 to 20 hrs by broth microdilution method; type: functional; settings: time 18-20 hrs
Klebsiella pneumoniae [3] = experiment: Antibacterial activity against Klebsiella pneumoniae ATCC 700603 measured after 18 to 20 hrs by broth microdilution method; type: functional; settings: time 18-20 hrs
Pseudomonas aeruginosa [4] = experiment: Antibacterial activity against Pseudomonas aeruginosa 27853 measured after 18 to 20 hrs by broth microdilution method; type: functional; settings: time 18-20 hrs
Pseudomonas aeruginosa [5] = experiment: Antibacterial activity against Pseudomonas aeruginosa 1121 measured after 18 to 20 hrs by broth microdilution method; type: functional; settings: time 18-20 hrs
Pseudomonas aeruginosa [6] = experiment: Antibacterial activity against Pseudomonas aeruginosa PAO1 measured after 18 to 20 hrs by broth microdilution method; type: functional; settings: time 18-20 hrs
Staphylococcus aureus = experiment: Antibacterial activity against Staphylococcus aureus ATCC 25923 measured after 18 to 20 hrs by broth microdilution method; type: functional; settings: time 18-20 hrs
Klebsiella pneumoniae [7] = experiment: Antibacterial activity against Klebsiella pneumoniae ATCC 700603 measured after 18 to 20 hrs in presence of FeIII cultured under CAA medium by broth microdilution method; type: functional; settings: time 18-20 hrs
Pseudomonas aeruginosa [8] = experiment: Antibacterial activity against Pseudomonas aeruginosa 27853 measured after 18 to 20 hrs in presence of FeIII cultured under CAA medium by broth microdilution method; type: functional; settings: time 18-20 hrs
Pseudomonas aeruginosa [9] = experiment: Antibacterial activity against Pseudomonas aeruginosa PAO1 measured after 18 to 20 hrs in presence of FeIII cultured under CAA medium by broth microdilution method; type: functional; settings: time 18-20 hrs
Escherichia coli [10] = experiment: Antibacterial activity against Escherichia coli ATCC 25922 measured after 18 to 20 hrs in presence of FeIII cultured under CAA medium by broth microdilution method; type: functional; settings: time 18-20 hrs
Cell membrane [11] = experiment: Induction of cytoplasmic membrane permeabilization in Pseudomonas aeruginosa PAO1 assessed as disruption of cell membrane integrity by measuring increase in number of dead cells measured after 2 hrs by PI and SYTO9 staining based confocal laser scanning microscopy analysis; type: cell membranes
[12] = Cytotoxicity against African green monkey Vero cells at 100 uM measured after 24 hrs by MTT assay; type: toxicity, cell-based; settings: chlorocebus sabaeus
[13] = Metal chelating activity assessed as compound-Fe3+ complex formation incubated for 10 mins by CAS assay
Pseudomonas aeruginosa [14] = experiment: Antibacterial activity against Pseudomonas aeruginosa PAO1 infected in Caenorhabditis elegans assessed as survival rate at 12.5 to 50 uM measured upto 72 hrs relative to control; type: functional; settings: dose 12.5-50 µM
Pseudomonas aeruginosa [15] = experiment: Antibacterial activity against Pseudomonas aeruginosa PAO1 overexpressing fpvA mutant assessed as fold increase in MIC measured after 18 to 20 hrs by broth microdilution method; type: functional; settings: time 18-20 hrs
Cell membrane [16] = experiment: Induction of outer membrane permeabilization in Pseudomonas aeruginosa PAO1 assessed as increase in accumulation of NPN by measuring fluorescence intensity measured for 1 hr by NPN dye uptake assay; type: cell membranes
Pseudomonas aeruginosa [17] = experiment: Antibacterial activity against Pseudomonas aeruginosa PAO1 delta-pvds measured after 18 to 20 hrs by broth microdilution method; type: functional, organism-based; settings: time 18-20 hrs
[18] = Acute toxicity in L4 stage of Caenorhabditis elegans at 12.5 to 50 uM; settings: dose 12.5-50 µM
[19] = Cytotoxicity against African green monkey Vero cells at 50 uM measured after 24 hrs by MTT assay; type: toxicity, cell-based; settings: chlorocebus sabaeus
Erythrocyte = experiment: Hemolytic activity in rabbit red blood cells assessed as hemolysis at 12.5 to 50 uM measured after 2 hrs by microplate reader based analysis; type: toxicity, cell-based, Oryctolagus cuniculus; settings: dose 12.5-50 µM
Pseudomonas aeruginosa [20] = experiment: Antibacterial activity against Pseudomonas aeruginosa PAO1 infected in Caenorhabditis elegans assessed as improvement in survival rate at 12.5 to 50 uM measured upto 72 hrs; type: functional, organism-based; settings: dose 12.5-50 µM

| SMILES | MIC (Escherichia coli [1]) | MIC (Pseudomonas aeruginosa [2]) | MIC (Klebsiella pneumoniae [3]) | MIC (Pseudomonas aeruginosa [4]) | MIC (Pseudomonas aeruginosa [5]) | MIC (Pseudomonas aeruginosa [6]) | MIC (Staphylococcus aureus) | other results |
| --- | --- | --- | --- | --- | --- | --- | --- | --- |
| CCCCCCC(=O)NCc1cc(=O)c(O)cn1C | > 250 µM | > 250 µM | > 250 µM | > 250 µM | > 250 µM | > 250 µM | > 250 µM |  |
| CC(C)=CCc1c(OCCCCCCC(=O)NCc2c(O)c(=O)cc(C)n2C)cc(/C=C/c2ccc(F)cc2)c(C(=O)O)c1O | > 250 µM | > 250 µM | > 250 µM | > 250 µM | > 250 µM | 7.81 µM (≈ 4.85 µg/mL) | > 250 µM |  |
| CCn1cc(C(=O)O)c(=O)c2cc(F)c(N3CCNCC3)cc21 [NORFLOXACIN] | 0.49 µM (≈ 0.156 µg/mL) | 3.9 µM (≈ 1.25 µg/mL) | 31.2 µM (≈ 9.98 µg/mL) | 15.6 µM (≈ 4.98 µg/mL) | 3.9 µM (≈ 1.25 µg/mL) | 1.95 µM (≈ 0.623 µg/mL) | 7.8 µM (≈ 2.49 µg/mL) | MIC (Klebsiella pneumoniae [7]): 31.2 µM; MIC (Pseudomonas aeruginosa [8]): 15.6 µM; MIC (Pseudomonas aeruginosa [9]): 1.95 µM; MIC (Escherichia coli [10]): 0.49 µM |
| CC(C)=CCc1c(OCCCCCCCC(=O)NCc2cc(=O)c(O)cn2C)cc(/C=C/c2ccc(F)cc2)c(C(=O)O)c1O | > 250 µM | 31.2 µM (≈ 19.4 µg/mL) | > 250 µM | 15.6 µM (≈ 9.68 µg/mL) | 15.6 µM (≈ 9.68 µg/mL) | 7.8 µM (≈ 4.84 µg/mL) | > 250 µM | Activity (Cell membrane [11]): Dose-Dependent Effect; Activity [12]: Toxic; MIC (Klebsiella pneumoniae [7]): > 250 µM; Activity [13]: Active; Survival (Pseudomonas aeruginosa [14]): 50%; fold change (FC) (Pseudomonas aeruginosa [15]): 4; MIC (Pseudomonas aeruginosa [8]): > 250 µM; MIC (Pseudomonas aeruginosa [9]): > 250 µM; Activity (Cell membrane [16]): Active; Activity (Pseudomonas aeruginosa [17]): Active; Activity [18]: Non-Toxic; Activity [19]: Non-Toxic; Activity (Erythrocyte): Non-Toxic; MIC (Escherichia coli [10]): > 250 µM; Activity (Pseudomonas aeruginosa [20]): Active |
| CC(C)=CCc1c(OCCCCCC(=O)NCc2c(O)c(=O)cc(C)n2C)cc(CSc2ccc(F)cc2)c(C(=O)O)c1O | > 250 µM | > 250 µM | > 250 µM | > 250 µM | > 250 µM | > 250 µM | > 250 µM |  |
| CC(C)=CCc1c(OCc2cn(CCCn3cc(O)c(=O)cc3C)nn2)cc(/C=C/c2ccc(F)cc2)c(C(=O)O)c1O | > 250 µM | > 250 µM | > 250 µM | 31.2 µM (≈ 18.4 µg/mL) | > 250 µM | 31.2 µM (≈ 18.4 µg/mL) | > 250 µM |  |
| CCCCCCCC(=O)NCc1cc(=O)c(O)cn1C | > 250 µM | > 250 µM | > 250 µM | > 250 µM | > 250 µM | > 250 µM | > 250 µM |  |
| CC(C)=CCc1c(OCCCCCCC(=O)NCc2cc(=O)c(O)cn2C)cc(/C=C/c2ccc(F)cc2)c(C(=O)O)c1O | > 250 µM | 31.2 µM (≈ 19 µg/mL) | > 250 µM | 15.6 µM (≈ 9.46 µg/mL) | 15.6 µM (≈ 9.46 µg/mL) | 7.8 µM (≈ 4.73 µg/mL) | > 250 µM | Activity (Cell membrane [11]): Dose-Dependent Effect; Activity [12]: Toxic; MIC (Klebsiella pneumoniae [7]): > 250 µM; Activity [13]: Active; Survival (Pseudomonas aeruginosa [14]): 50%; fold change (FC) (Pseudomonas aeruginosa [15]): 4; MIC (Pseudomonas aeruginosa [8]): > 250 µM; MIC (Pseudomonas aeruginosa [9]): > 250 µM; Activity (Cell membrane [16]): Dose-Dependent Effect; Activity (Pseudomonas aeruginosa [17]): Active; Activity [18]: Non-Toxic; Activity [19]: Non-Toxic; Activity (Erythrocyte): Non-Toxic; MIC (Escherichia coli [10]): > 250 µM; Activity (Pseudomonas aeruginosa [20]): Active |

The next lines start with results.

| MIC (Escherichia coli [1]) | MIC (Pseudomonas aeruginosa [2]) | MIC (Klebsiella pneumoniae [3]) | MIC (Pseudomonas aeruginosa [4]) | MIC (Pseudomonas aeruginosa [5]) | MIC (Pseudomonas aeruginosa [6]) | MIC (Staphylococcus aureus) | SMILES | other results |
| --- | --- | --- | --- | --- | --- | --- | --- | --- |
| > 250 µM | > 250 µM | > 250 µM | > 250 µM | > 250 µM | > 250 µM | 62.5 µM (≈ 23.5 µg/mL) | COc1cc(CSc2ccc(F)cc2)c(C(=O)O)c(O)c1CC=C(C)C |  |
| > 250 µM | > 250 µM | > 250 µM | 31.2 µM (≈ 19.4 µg/mL) | > 250 µM | 7.8 µM (≈ 4.84 µg/mL) | > 250 µM | CCn1cc(O)c(=O)cc1CNC(=O)CCCCCCOc1cc(/C=C/c2ccc(F)cc2)c(C(=O)O)c(O)c1CC=C(C)C |  |
| > 250 µM | > 250 µM | > 250 µM | > 250 µM | > 250 µM | > 250 µM | > 250 µM | CC(C)=CCc1c(OCCCCCC(=O)NCc2cc(=O)c(O)cn2C)cc(CSc2ccc(F)cc2)c(C(=O)O)c1O |  |
| > 250 µM | > 250 µM | > 250 µM | 31.2 µM (≈ 18.5 µg/mL) | 31.2 µM (≈ 18.5 µg/mL) | 31.2 µM (≈ 18.5 µg/mL) | > 250 µM | CC(C)=CCc1c(OCCCCCC(=O)NCc2cc(=O)c(O)cn2C)cc(/C=C/c2ccc(F)cc2)c(C(=O)O)c1O |  |
| > 250 µM | > 250 µM | > 250 µM | > 250 µM | > 250 µM | > 250 µM | > 250 µM | CC(C)=CCc1c(OCCCCCCC(=O)NCc2c(O)c(=O)cc(C)n2C)cc(CSc2ccc(F)cc2)c(C(=O)O)c1O |  |

Source: ChEMBL document CHEMBL5512647, “Cajaninstilbene acid derivatives conjugated with siderophores of 3-hydroxypyridin-4(1H)-ones as novel antibacterial agents against Gram-negative bacteria based on the Trojan horse strategy” (Eur J Med Chem, 2024)
